# According to US20220396565A1 (Hoffmann-La Roche Inc., priority 2020, published 2022):
# Structures can show the parent of a compound that is named as a salt.
# Tested on: Acinetobacter baumannii ATCC17978
# Test: Antimicrobial susceptibility testing: 90% growth inhibitory concentration (IC90) determination, Iso-Sensitest broth
# Type: cell-based
# Settings: 90% growth inhibitory concentration, Acinetobacter baumannii ATCC17978, Iso-Sensitest broth; read-out: ATCC 17978 IC90
# In short: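 Growth at OD600 was monitored every 20 min for 16 h at 35±2 °C, with bacteria inoculated at ~5×10^(5) CFU/ml into Iso-Sensitest medium. Compounds were tested as 10-point twofold dilutions (e.g. 10–0.02 μM final). The 90% inhibitory concentration comes from the log-phase growth.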
row,SMILES,IC90 [nM]
1,"COc1ccc(-c2cnc(C(=O)Nc3ccc(C(=O)N4CCN(C(=O)C5CCNCC5)CC4)c(C)c3)n2C)c(Cl)c1F [Example 117, 5-(2-chloro-3-fluoro-4-methoxy-phenyl)-1-methyl-N-[3-methyl-4-[4-(piperidine-4-carbonyl)piperazine-1-carbonyl]phenyl]imidazole-2-carboxamide formate]",150
2,"Cn1c(-c2ccc(OCC#N)c(F)c2F)cnc1C(=O)Nc1ccc(C(=O)N2CCN(C(=O)[C@@H]3C[C@@H](O)CN3)CC2)c(Cl)c1 [Example 202, N-(3-chloro-4-(4-((2S,4R)-4-hydroxypyrrolidine-2-carbonyl)piperazine-1-carbonyl)phenyl)-5-(4-(cyanomethoxy)-2,3-difluorophenyl)-1-methyl-1H-imidazole-2-carboxamide 2,2,2-trifluoroacetate]",90
3,"CCc1cc(NC(=O)c2ncc(-c3ccc(OC)c(F)c3F)n2C)ccc1C(=O)N1CCC(Cc2nc(C3CCC3)no2)CC1 [Example 27, N-[4-[4-[(3-cyclobutyl-1,2,4-oxadiazol-5-yl)methyl]piperidine-1-carbonyl]-3-ethyl-phenyl]-5-(2,3-difluoro-4-methoxy-phenyl)-1-methyl-imidazole-2-carboxamide]",5700
4,"Cc1cc(NC(=O)c2ncc(-c3ccc(OCC#N)c(F)c3F)n2C)ccc1C(=O)N1CCC(C(=O)N2CCS(=O)(=O)CC2)CC1 [Example 77, 5-(4-(cyanomethoxy)-2,3-difluorophenyl)-N-(4-(4-(1,1-dioxidothiomorpholine-4-carbonyl)piperidine-1-carbonyl)-3-methylphenyl)-1-methyl-1H-imidazole-2-carboxamide]",170
5,"Cn1c(-c2ccc(OCC#N)c(F)c2F)cnc1C(=O)Nc1ccc(C(=O)N2CCN(C(=O)C3(O)CCNCC3)CC2)c(Cl)c1 [Example 207, N-(3-chloro-4-(4-(4-hydroxypiperidine-4-carbonyl)piperazine-1-carbonyl)phenyl)-5-(4-(cyanomethoxy)-2,3-difluorophenyl)-1-methyl-1H-imidazole-2-carboxamide 2,2,2-trifluoroacetate]",50
6,"COc1ccc(-c2cnc(C(=O)Nc3ccc(C(=O)N4CCN(C(=O)[C@@H]5C[C@H](O)CN5)CC4)c(Cl)c3)n2C)c(F)c1F [Example 107, N-[3-chloro-4-[4-[(2S,4S)-4-hydroxypyrrolidine-2-carbonyl]piperazine-1-carbonyl]phenyl]-5-(2,3-difluoro-4-methoxy-phenyl)-1-methyl-imidazole-2-carboxamide trifluoroacetate]",80
7,"Cn1c(-c2ccc(OCC#N)c(F)c2F)cnc1C(=O)Nc1ccc(C(=O)N2CCC(C(=O)N3CC[C@@H](N)C3)CC2)c(Cl)c1 [Example 80, (R)-N-(4-(4-(3-aminopyrrolidine-1-carbonyl)piperidine-1-carbonyl)-3-chlorophenyl)-5-(4-(cyanomethoxy)-2,3-difluorophenyl)-1-methyl-1H-imidazole-2-carboxamide formate]",70
8,"Cn1c(-c2ccc(OCC#N)c(F)c2F)cnc1C(=O)Nc1ccc(C(=O)N2CCN(C(=O)[C@@H]3C[C@H](O)CN3)CC2)c(Cl)c1 [Example 201, N-(3-chloro-4-(4-((2S,4S)-4-hydroxypyrrolidine-2-carbonyl)piperazine-1-carbonyl)phenyl)-5-(4-(cyanomethoxy)-2,3-difluorophenyl)-1-methyl-1H-imidazole-2-carboxamide formate]",50
9,"COc1ccc(-c2cnc(C(=O)Nc3ccc(C(=O)N4CCN(CCN(C)C)CC4)c(Cl)c3)n2C)c(F)c1F [Example 278, N-[3-chloro-4-[4-[2-(dimethylamino)ethyl]piperazine-1-carbonyl]phenyl]-5-(2,3-difluoro-4-methoxy-phenyl)-1-methyl-imidazole-2-carboxamide formate]",80
10,"CN(C)CCN1CCN(C(=O)c2ccc(NC(=O)c3ncc(-c4ccc(OCC#N)c(F)c4Cl)n3C)cc2Cl)CC1 [Example 270, 5-[2-chloro-4-(cyanomethoxy)-3-fluoro-phenyl]-N-[3-chloro-4-[4-[2-(dimethylamino)ethyl]piperazine-1-carbonyl]phenyl]-1-methyl-imidazole-2-carboxamide]",50
11,"CCc1cc(NC(=O)c2ncc(-c3ccc(OC(F)F)cc3)n2C)ccc1C(=O)N1CCN(CCN(C)C)CC1 [Example 275, 5-[4-(difluoromethoxy)phen-yl]-N-[4-[4-[2-(dimethylamino)ethyl]piperazine-1-carbonyl]-3-ethyl-phenyl]-1-methyl-imidazole-2-carboxamide]",1520
12,"CNCC(=O)N1CCN(C(=O)c2ccc(NC(=O)c3ncc(-c4ccc(OC)c(F)c4F)n3C)cc2Cl)CC1 [Example 105, N-[3-chloro-4-[4-[2-(methylamino)acetyl]piperazine-1-carbonyl]phenyl]-5-(2,3-difluoro-4-methoxy-phenyl)-1-methyl-imidazole-2-carboxamide trifluoroacetate]",70
13,"COc1ccc(-c2cnc(C(=O)Nc3ccc(C(=O)N4CCN(CCN(C)C)CC4)c(Cl)c3)n2C)cc1F [Example 274, N-[3-chloro-4-[4-[2-(dimethylamino)ethyl]piperazine-1-carbonyl]phenyl]-5-(3-fluoro-4-methoxy-phenyl)-1-methyl-imidazole-2-carboxamide formate]",290
14,"CNCC(=O)N1CCN(C(=O)c2ccc(NC(=O)c3ncc(-c4ccc(OCC#N)c(F)c4F)n3C)cc2C)CC1 [Example 206, 5-(4-(cyanomethoxy)-2,3-difluorophenyl)-1-methyl-N-(3-methyl-4-(4-(methylglycyl)piperazine-1-carbonyl)phenyl)-1H-imidazole-2-carboxamide 2,2,2-trifluoroacetate]",100
15,"COc1ccc(-c2cnc(C(=O)Nc3ccc(C(=O)N4CCN(C(=O)[C@H]5C[C@@H](O)CN5)CC4)c(Cl)c3)n2C)c(Cl)c1F [Example 115, 5-(2-chloro-3-fluoro-4-methoxy-phenyl)-N-[3-chloro-4-[4-[(2R,4R)-4-hydroxypyrrolidine-2-carbonyl]piperazine-1-carbonyl]phenyl]-1-methyl-imidazole-2-carboxamide formate]",140
16,"COc1ccc(-c2cnc(C(=O)Nc3ccc(C(=O)N4CCN(C(=O)C5(O)CCNCC5)CC4)c(Cl)c3)n2C)c(Cl)c1F [Example 113, 5-(2-chloro-3-fluoro-4-methoxy-phenyl)-N-[3-chloro-4-[4-(4-hydroxypiperidine-4-carbonyl)piperazine-1-carbonyl]phenyl]-1-methyl-imidazole-2-carboxamide formate]",80
17,"Cn1c(-c2ccc(OCC#N)c(F)c2F)cnc1C(=O)Nc1ccc(C(=O)N2CCC(C(=O)N3CCOCC3)CC2)c(Cl)c1 [Example 74, N-(3-chloro-4-(4-(morpholine-4-carbonyl)piperidine-1-carbonyl)phenyl)-5-(4-(cyanomethoxy)-2,3-difluorophenyl)-1-methyl-1H-imidazole-2-carboxamide]",100
18,"CNCC(=O)N1CCN(C(=O)c2ccc(NC(=O)c3ncc(-c4ccc(OCC#N)c(F)c4F)n3C)cc2Cl)CC1 [Example 205, N-(3-chloro-4-(4-(methylglycyl)piperazine-1-carbonyl)phenyl)-5-(4-(cyanomethoxy)-2,3-difluorophenyl)-1-methyl-1H-imidazole-2-carboxamide formate]",60
19,"Cn1c(-c2ccc(OCC#N)c(F)c2F)cnc1C(=O)Nc1ccc(C(=O)N2CCC(C(=O)N3CCN[C@@H](CO)C3)CC2)c(Cl)c1 [Example 81, (R)-N-(3-chloro-4-(4-(3-(hydroxymethyl)piperazine-1-carbonyl)piperidine-1-carbonyl)phenyl)-5-(4-(cyanomethoxy)-2,3-difluorophenyl)-1-methyl-1H-imidazole-2-carboxamide 2,2,2-trifluoroacetate]",70
20,"COc1ccc(-c2cnc(C(=O)Nc3ccc(C(=O)N4CCN(C(=O)[C@@H]5C[C@@H](O)CN5)CC4)c(Cl)c3)n2C)c(F)c1F [Example 106, N-[3-chloro-4-[4-[(2S,4R)-4-hydroxypyrrolidine-2-carbonyl]piperazine-1-carbonyl]phenyl]-5-(2,3-difluoro-4-methoxy-phenyl)-1-methyl-imidazole-2-carboxamide trifluoroacetate]",100
21,"Cn1c(-c2ccc(OCC#N)c(F)c2F)cnc1C(=O)Nc1ccc(C(=O)N2CCN(C(=O)[C@@H]3CCNC3)CC2)c(Cl)c1 [Example 199, (R)-N-(3-chloro-4-(4-(pyrrolidine-3-carbonyl)piperazine-1-carbonyl)phenyl)-5-(4-(cyanomethoxy)-2,3-difluorophenyl)-1-methyl-1H-imidazole-2-carboxamide 2,2,2-trifluoroacetate]",40
22,"COc1ccc(-c2cnc(C(=O)Nc3ccc(C(=O)N4CCN(C(=O)[C@@H]5C[C@H](O)CN5)CC4)c(Cl)c3)n2C)c(Cl)c1F [Example 114, 5-(2-chloro-3-fluoro-4-methoxy-phenyl)-N-[3-chloro-4-[4-[(2S,4S)-4-hydroxypyrrolidine-2-carbonyl]piperazine-1-carbonyl]phenyl]-1-methyl-imidazole-2-carboxamide formate]",110

# Same assay, conditions: Acinetobacter baumannii, ATCC17978, read-out: ATCC 17978 IC90
row,SMILES,IC90 [nM]
1,"Cn1c(-c2ccc(OCC#N)c(F)c2F)cnc1C(=O)Nc1ccc(C(=O)N2CCN(C(=O)[C@H]3CCNC3)CC2)c(Cl)c1 [Example 200, (S)-N-(3-chloro-4-(4-(pyrrolidine-3-carbonyl)piperazine-1-carbonyl)phenyl)-5-(4-(cyanomethoxy)-2,3-difluorophenyl)-1-methyl 1H-imidazole-2-carboxamide 2,2,2-trifluoroacetate]",50
2,"CN(C)CCN1CCN(C(=O)c2ccc(NC(=O)c3ncc(-c4ccc(OCC#N)c(Cl)c4)n3C)cc2Cl)CC1 [Example 269, 5-[3-Chloro-4-(cyanomethoxy)phenyl]-N-[3-chloro-4-[4-[2-(dimethylamino)ethyl]piperazine-1-carbonyl]phenyl]-1-methyl-imidazole-2-carboxamide trifluoroacetate]",70
